Results published in patent publication US6737383B1, “Herbicidal oxadiazolidines” (priority 1999, dated 2004).

Tests used:
cocklebur = assay: Test B pre/postemergence cocklebur; type: in vivo, Xanthium strumarium
Method in brief: (§1)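 Herbicidal effect was estimated by eye on a ten-point control scale after plants spent twelve to sixteen days in a greenhouse following soil or foliar treatment. Foliar sprays targeted plants at one to four leaves; all doses were formulated in a non-phytotoxic solvent with surfactant.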

corn = assay: Test B pre/postemergence corn; type: in vivo, Zea mays
Method in brief: as §1

soybean = assay: Test B pre/postemergence soybean; type: in vivo, Glycine max
Method in brief: as §1

crabgrass = assay: Test B pre/postemergence crabgrass; type: in vivo, Digitaria sanguinalis
Method in brief: as §1

giant foxtail = assay: Test B pre/postemergence giant foxtail; type: in vivo, Setaria faberii
Method in brief: as §1

blackgrass = assay: Test B pre/postemergence blackgrass; type: in vivo, Alopecurus myosuroides
Method in brief: as §1

rice = assay: Test B flood test rice; type: in vivo, Oryza sativa
Method in brief: (§2)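 Read-out is a visual response score from 0 (no effect) to 10 (complete control), assigned by comparison with untreated controls. Treatment was applied at the 2-leaf stage, and plants stayed in the greenhouse for twelve to sixteen days before scoring.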

duck salad = assay: Test B flood test duck salad; type: in vivo, Heteranthera limosa
Method in brief: as §2

purple nutsedge = assay: Test B pre/postemergence purple nutsedge; type: in vivo, Cyperus rotundus
Method in brief: as §1

rape = assay: Test B pre/postemergence rape; type: in vivo, Brassica napus
Method in brief: as §1

smallflower flatsedge = assay: Test B flood test smallflower flatsedge; type: in vivo, Cyperus difformis
Method in brief: as §2

bamyardgrass = assay: Test B flood test barnyardgrass; type: in vivo, Echinochloa crus-galli
Method in brief: as §2

surinam grass = assay: Test B pre/postemergence surinam grass; type: in vivo, Brachiaria decumbens
Method in brief: as §1

wheat = assay: Test B pre/postemergence wheat; type: in vivo, Triticum aestivum
Method in brief: as §1

pigweed = assay: Test B pre/postemergence pigweed; type: in vivo, Amaranthus retroflexus
Method in brief: as §1

sugar beet = assay: Test B pre/postemergence sugar beet; type: in vivo, Beta vulgaris
Method in brief: as §1

[1] = Preemergence, Rate 31 g/ha, visual rating, scale 0 to 10 (0 no effect, 10 complete control)
[2] = Preemergence, Rate 62 g/ha, scale of 0 to 10 where 0 is no effect and 10 is complete control
[3] = Preemergence, Rate 125 g/ha, 0 is no effect, 10 is complete control
[4] = Preemergence, Rate 250 g/ha, scale 0 to 10, 0 is no effect, 10 is complete control
[5] = Rate 31 g/ha, Postemergence, scale 0 to 10
[6] = Rate 62 g/ha, Postemergence, scale of 0 to 10 where 0 is no effect and 10 is complete control
[7] = Rate 125 g/ha, Postemergence, scale 0 to 10
[8] = Rate 31 g/ha, Pre-emergence section (flood test species), scale 0 to 10
[9] = Rate 62 g/ha, headed Pre-emergence (flood test species), scale 0 to 10 (0 no effect, 10 complete control)
[10] = Rate 125 g/ha, Pre-emergence, flood test species, scale 0 to 10 where 0 is no effect and 10 is complete control
[11] = Rate 250 g/ha, Pre-emergence, flood-test species, scale 0 to 10, 0 is no effect, 10 is complete control

Cc1ccccc1-n1c(=O)on(C(=O)N(c2ccc(F)cc2)C2CCC2)c1=O [Compound 200]
Cocklebur plant response rating (cocklebur; [1]): 0 | Cocklebur plant response rating (cocklebur; [2]): 0 | Cocklebur plant response rating (0 to 10 scale) (cocklebur; [3]): 0 | Cocklebur plant response rating (cocklebur; [4]): 0 | Cocklebur plant response rating (cocklebur; [5]): 0 | Cocklebur plant response rating (cocklebur; [6]): 0 | Cocklebur plant response rating (cocklebur; [7]): 0 | Plant response rating (0 to 10; 0 is no effect, 10 is complete control), Cocklebur (cocklebur; Rate 250 g/ha, Postemergence): 0 | Corn plant response rating (corn; [1]): 0 | Corn plant response rating (corn; [2]): 0 | Corn plant response rating (0 to 10 scale) (corn; [3]): 0 | Corn plant response rating (corn; [4]): 0 | Corn plant response rating (corn; [5]): 0 | Corn plant response rating (corn; [6]): 0 | Corn plant response rating (corn; [7]): 0 | Plant response rating (0 to 10; 0 is no effect, 10 is complete control), Corn (corn; Rate 250 g/ha, Postemergence): 0 | Soybean plant response rating (soybean; [1]): 0 | Soybean plant response rating (soybean; [2]): 0 | Soybean plant response rating (0 to 10 scale) (soybean; [3]): 0 | Soybean plant response rating (soybean; [4]): 0 | Soybean plant response rating (soybean; [6]): 2 | Soybean plant response rating (soybean; [7]): 2 | Plant response rating (0 to 10; 0 is no effect, 10 is complete control), Soybean (soybean; Rate 250 g/ha, Postemergence): 2 | Crabgrass plant response rating (crabgrass; [1]): 0 | Crabgrass plant response rating (crabgrass; [2]): 0 | Crabgrass plant response rating (0 to 10 scale) (crabgrass; [3]): 2 | Crabgrass plant response rating (crabgrass; [4]): 6 | Crabgrass plant response rating (crabgrass; [5]): 0 | Crabgrass plant response rating (crabgrass; [6]): 0 | Crabgrass plant response rating (crabgrass; [7]): 1 | Plant response rating (0 to 10; 0 is no effect, 10 is complete control), Crabgrass (crabgrass; Rate 250 g/ha, Postemergence): 2 | Giant foxtail plant response rating (giant foxtail; [1]): 0 | Giant foxtail plant response rating (giant foxtail; [2]): 0 | Giant foxtail plant response rating (0 to 10 scale) (giant foxtail; [3]): 4 | Giant foxtail plant response rating (giant foxtail; [4]): 6 | Giant foxtail plant response rating (giant foxtail; [5]): 0 | Giant foxtail plant response rating (giant foxtail; [6]): 0 | Giant foxtail plant response rating (giant foxtail; [7]): 0 | Plant response rating (0 to 10; 0 is no effect, 10 is complete control), Giant foxtail (giant foxtail; Rate 250 g/ha, Postemergence): 0 | Blackgrass plant response rating (blackgrass; [1]): 0 | Blackgrass plant response rating (blackgrass; [2]): 0 | Blackgrass plant response rating (0 to 10 scale) (blackgrass; [3]): 5 | Blackgrass plant response rating (blackgrass; [4]): 7 | Blackgrass plant response rating (blackgrass; [5]): 0 | Blackgrass plant response rating (blackgrass; [6]): 0 | Blackgrass plant response rating (blackgrass; [7]): 0 | Plant response rating (0 to 10; 0 is no effect, 10 is complete control), Blackgrass (blackgrass; Rate 250 g/ha, Postemergence): 0 | Rice plant response rating (rice; [8]): 0 | Rice plant response rating (rice; [9]): 0 | Rice plant response rating (rice; [10]): 0 | Rice plant response rating (rice; [11]): 0 | Ducksalad plant response rating (duck salad; [8]): 0 | Ducksalad plant response rating (duck salad; [9]): 0 | Ducksalad plant response rating (duck salad; [10]): 0 | Ducksalad plant response rating (duck salad; [11]): 0 | Nutsedge plant response rating (purple nutsedge; [1]): 0 | Nutsedge plant response rating (purple nutsedge; [2]): 0 | Nutsedge plant response rating (0 to 10 scale) (purple nutsedge; [3]): 0 | Nutsedge plant response rating (purple nutsedge; [5]): 0 | Nutsedge plant response rating (purple nutsedge; [6]): 0 | Nutsedge plant response rating (purple nutsedge; [7]): 0 | Plant response rating (0 to 10; 0 is no effect, 10 is complete control), Nutsedge (purple nutsedge; Rate 250 g/ha, Postemergence): 0 | Rape plant response rating (rape; [1]): 0 | Rape plant response rating (rape; [2]): 0 | Rape plant response rating (0 to 10 scale) (rape; [3]): 0 | Rape plant response rating (rape; [4]): 0 | Rape plant response rating (rape; [5]): 0 | Rape plant response rating (rape; [6]): 0 | Rape plant response rating (rape; [7]): 0 | Plant response rating (0 to 10; 0 is no effect, 10 is complete control), Rape (rape; Rate 250 g/ha, Postemergence): 0 | S. Flatsedge plant response rating (smallflower flatsedge; [8]): 0 | S. Flatsedge plant response rating (smallflower flatsedge; [9]): 0 | S. Flatsedge plant response rating (smallflower flatsedge; [10]): 0 | S. Flatsedge plant response rating (smallflower flatsedge; [11]): 0 | Barnyardgrass plant response rating (bamyardgrass; [8]): 0 | Barnyardgrass plant response rating (bamyardgrass; [9]): 0 | Barnyardgrass plant response rating (bamyardgrass; [10]): 0 | Barnyardgrass plant response rating (bamyardgrass; [11]): 0 | B. signalgrass plant response rating (surinam grass; [1]): 0 | B. signalgrass plant response rating (surinam grass; [2]): 0 | B. signalgrass plant response rating (0 to 10 scale) (surinam grass; [3]): 0 | B. signalgrass plant response rating (surinam grass; [4]): 0 | B. signalgrass plant response rating (surinam grass; [5]): 0 | B. signalgrass plant response rating (surinam grass; [6]): 0 | B. signalgrass plant response rating (surinam grass; Rate 125 g/ha, Postemergence, scale 0 (no effect) to 10 (complete control)): 0 | Plant response rating, B. signalgrass (surinam grass; Rate 250 g/ha, Postemergence, scale 0 to 10, 0 is no effect, 10 is complete control): 0 | Wheat plant response rating (wheat; [1]): 0 | Wheat plant response rating (wheat; [2]): 0 | Wheat plant response rating (wheat; [4]): 0 | Wheat plant response rating (wheat; [6]): 0 | Wheat plant response rating (wheat; [7]): 0 | Plant response rating (0 to 10; 0 is no effect, 10 is complete control), Wheat (wheat; Rate 250 g/ha, Postemergence): 0 | Redroot pigweed plant response rating (pigweed; [1]): 0 | Redroot pigweed plant response rating (pigweed; [2]): 0 | Redroot pigweed plant response rating (0 to 10 scale) (pigweed; [3]): 0 | Redroot pigweed plant response rating (pigweed; [4]): 0 | Redroot pigweed plant response rating (pigweed; [5]): 0 | Redroot pigweed plant response rating (pigweed; [6]): 0 | Redroot pigweed plant response rating (pigweed; [7]): 0 | Plant response rating (0 to 10; 0 is no effect, 10 is complete control), Redroot pigweed (pigweed; Rate 250 g/ha, Postemergence): 0 | Sugarbeets plant response rating (sugar beet; [1]): 0 | Sugarbeets plant response rating (sugar beet; [2]): 0 | Sugarbeets plant response rating (0 to 10 scale) (sugar beet; [3]): 0 | Sugarbeets plant response rating (sugar beet; [4]): 0 | Sugarbeets plant response rating (sugar beet; [6]): 0 | Sugarbeets plant response rating (sugar beet; [7]): 0 | Plant response rating (0 to 10; 0 is no effect, 10 is complete control), Sugarbeets (sugar beet; Rate 250 g/ha, Postemergence): 0
